Values joined by “and” are separate entries in the source; they are usually repeats but may differ in a detail not shown here. Equal entries are not always repeated.
Key:
[1] = system: lipid peroxidation; design: method as in Shirai et al., 2001; conditions: 10 mM; ref Shirai et al., 2001; cited from earlier work
[2] = Stability of the analytes in rat plasma QC samples at different storage conditions; format: in vitro ADME; conditions: for Post-preparation stability (4℃ for 24 h) Measured Conc.: extracted plasma samples in auto sampler rack; for Post-preparation stability (4℃ for 24 h) Measured Conc. / Free-thaw stability (3 free-thaw cycles) Measured Conc. / Long-term stability (-80℃ for 15 d) Measured Conc. / Short-term stability (25℃ for 12 h) Measured Conc.: n=5; for Free-thaw stability, Test Conc., AV / Free-thaw stability, Test Conc. / Post-preparation stability, Test Conc., AV / Post-preparation stability, Test Conc. / Short-term stability, Test Conc., AV / Short-term stability, Test Conc. / Long-term stability, Test Conc., AV / Long-term stability, Test Conc.: plasma; for Free-thaw stability, Test Conc., AV / Free-thaw stability, Test Conc.: 3 free-thaw cycles; for Free-thaw stability, Test Conc., AV / Post-preparation stability, Test Conc., AV / Short-term stability, Test Conc., AV / Long-term stability, Test Conc., AV: AV of 5 replicates; for Free-thaw stability, Test Conc. / Post-preparation stability, Test Conc. / Short-term stability, Test Conc. / Long-term stability, Test Conc.: single replicates NO.1-NO.5, listed as Quercetin-3-O-β-D-glucuronide (QG); for Post-preparation stability, Test Conc., AV / Post-preparation stability, Test Conc.: 4℃ for 24 h; for Short-term stability, Test Conc., AV / Short-term stability, Test Conc.: 25℃ for 12 h; for Long-term stability, Test Conc., AV / Long-term stability, Test Conc.: -80℃ for 15 d; for Free-thaw stability (3 free-thaw cycles) Measured Conc. / Long-term stability (-80℃ for 15 d) Measured Conc. / Short-term stability (25℃ for 12 h) Measured Conc.: rat plasma
Protocol: The stabilities of Qr, IQ, and QG in plasma were assessed by analyzing QC samples at different storage conditions. The stabilities of three flavonoids in plasma were studied by analyzing three concentration levels of QC samples (n = 5) at room temperature (25 °C) for 12 h, at long-term storage (−80 °C for 15 days), after three freeze (−80 °C) and thaw (room temperature) cycles, and at auto sampler rack storage (4 °C for 24 h).

[3] = design: method as in Yoshino et al., 2011; conditions: ref Yoshino et al., 2011; cited from earlier work
[4] = high QC, nominal 8400.0 (Qr), 976.0 (IQ), 10000.0 (QG) ng/mL
[5] = low QC, nominal 65.6 (Qr), 48.8 (IQ), 100.0 (QG) ng/mL
[6] = medium QC, nominal 525.0 (Qr), 244.0 (IQ), 1000.0 (QG) ng/mL

O=C(O)[C@H]1O[C@@H](Oc2c(-c3ccc(O)c(O)c3)oc3cc(O)cc(O)c3c2=O)[C@H](O)[C@@H](O)[C@@H]1O [QG, Quercetin-3-O-β-D-glucuronide]
Inhibition of lipid peroxidation [1]: can inhibit lipid peroxidation | Post-preparation stability (4℃ for 24 h) Measured Conc. [2, 4]: 9409.6 ± 569.5 ng/mL | Post-preparation stability (4℃ for 24 h) Measured Conc. [2, 5]: 97.2 ± 6.0 ng/mL | Post-preparation stability (4℃ for 24 h) Measured Conc. [2]: 910.7 ± 68.0 ng/mL | Free-thaw stability, Test Conc., AV ([2]; nominal Conc. 100.00 ng/mL): 98.37 ng/mL | Free-thaw stability, Test Conc. ([2]; nominal Conc. 100.00 ng/mL): 105.25 ng/mL and 86.98 ng/mL and 102.05 ng/mL and 100.21 ng/mL and 97.34 ng/mL | Free-thaw stability, Test Conc., AV ([2]; nominal Conc. 1000.00 ng/mL): 954.92 ng/mL | Free-thaw stability, Test Conc. ([2]; nominal Conc. 1000.00 ng/mL): 860.30 ng/mL and 851.00 ng/mL and 988.40 ng/mL and 1022.10 ng/mL and 1052.80 ng/mL | Free-thaw stability, Test Conc., AV ([2]; nominal Conc. 10000.00 ng/mL): 9353.20 ng/mL | Free-thaw stability, Test Conc. ([2]; nominal Conc. 10000.00 ng/mL): 8753.00 ng/mL and 9439.00 ng/mL and 10058.00 ng/mL and 9832.00 ng/mL and 8684.00 ng/mL | Post-preparation stability, Test Conc., AV ([2]; nominal Conc. 100.00 ng/mL): 97.18 ng/mL | Post-preparation stability, Test Conc. ([2]; nominal Conc. 100.00 ng/mL): 105.22 ng/mL and 101.31 ng/mL and 93.07 ng/mL and 95.83 ng/mL and 90.49 ng/mL | Post-preparation stability, Test Conc., AV ([2]; nominal Conc. 1000.00 ng/mL): 910.72 ng/mL | Post-preparation stability, Test Conc. ([2]; nominal Conc. 1000.00 ng/mL): 905.70 ng/mL and 890.50 ng/mL and 1027.40 ng/mL and 853.70 ng/mL and 876.30 ng/mL | Post-preparation stability, Test Conc., AV ([2]; nominal Conc. 10000.00 ng/mL): 9409.60 ng/mL | Post-preparation stability, Test Conc. ([2]; nominal Conc. 10000.00 ng/mL): 8728.00 ng/mL and 8919.00 ng/mL and 9825.00 ng/mL and 10046.00 ng/mL and 9530.00 ng/mL | Short-term stability, Test Conc., AV ([2]; nominal Conc. 100.00 ng/mL): 89.29 ng/mL | Short-term stability, Test Conc. ([2]; nominal Conc. 100.00 ng/mL): 86.17 ng/mL and 83.32 ng/mL and 97.85 ng/mL and 94.48 ng/mL and 84.64 ng/mL | Short-term stability, Test Conc., AV ([2]; nominal Conc. 1000.00 ng/mL): 943.20 ng/mL | Short-term stability, Test Conc. ([2]; nominal Conc. 1000.00 ng/mL): 905.00 ng/mL and 917.50 ng/mL and 1029.40 ng/mL and 991.30 ng/mL and 872.80 ng/mL | Short-term stability, Test Conc., AV ([2]; nominal Conc. 10000.00 ng/mL): 9334.60 ng/mL | Short-term stability, Test Conc. ([2]; nominal Conc. 10000.00 ng/mL): 9717.00 ng/mL and 8935.00 ng/mL and 9106.00 ng/mL and 9353.00 ng/mL and 9562.00 ng/mL | Long-term stability, Test Conc., AV ([2]; nominal Conc. 100.00 ng/mL): 98.57 ng/mL | Long-term stability, Test Conc. ([2]; nominal Conc. 100.00 ng/mL): 87.09 ng/mL and 91.05 ng/mL and 96.73 ng/mL and 107.32 ng/mL and 110.64 ng/mL | Long-term stability, Test Conc., AV ([2]; nominal Conc. 1000.00 ng/mL): 941.48 ng/mL | Long-term stability, Test Conc. ([2]; nominal Conc. 1000.00 ng/mL): 839.70 ng/mL and 1104.80 ng/mL and 874.40 ng/mL and 932.10 ng/mL and 956.40 ng/mL | Long-term stability, Test Conc., AV ([2]; nominal Conc. 10000.00 ng/mL): 9985.00 ng/mL | Long-term stability, Test Conc. ([2]; nominal Conc. 10000.00 ng/mL): 10543.00 ng/mL and 10195.00 ng/mL and 11086.00 ng/mL and 9530.00 ng/mL and 8571.00 ng/mL | Free-thaw stability (3 free-thaw cycles) Measured Conc. [2, 4]: 9353.2 ± 620.8 ng/mL | Long-term stability (-80℃ for 15 d) Measured Conc. [2, 4]: 9985.0 ± 971.4 ng/mL | Short-term stability (25℃ for 12 h) Measured Conc. [2, 4]: 9334.6 ± 320.2 ng/mL | Free-thaw stability (3 free-thaw cycles) Measured Conc. [2, 5]: 98.4 ± 7.0 ng/mL | Long-term stability (-80℃ for 15 d) Measured Conc. [2, 5]: 98.6 ± 10.2 ng/mL | Short-term stability (25℃ for 12 h) Measured Conc. [2, 5]: 89.3 ± 6.5 ng/mL | Free-thaw stability (3 free-thaw cycles) Measured Conc. [2, 6]: 954.9 ± 93.5 ng/mL | Long-term stability (-80℃ for 15 d) Measured Conc. [2, 6]: 941.5 ± 102.3 ng/mL | Short-term stability (25℃ for 12 h) Measured Conc. [2, 6]: 943.2 ± 64.9 ng/mL | Toxicity compared with its aglycone [3]: much less toxic
